Test results taken from EPA's ToxValDB 9.5 (doi:10.2903/j.efsa.2006.61r).
Converted amounts (≈) assume the structure as drawn.

Experiments:
Apis mellifera = details: acute, mortality
Oncorhynchus mykiss = details: acute; duration: 96 hours; mortality
Anas platyrhynchos = details: acute; oral; unspecified; mortality
Daphnia magna = details: chronic/long-term; duration: 21 days; reproduction
Trichogramma cacoeciae = details: not reported
Tagia sp. = details: acute; duration: 14 days; mortality
Colinus virginianus = details: for LD50: acute, oral, mortality
Rattus norvegicus = details: for LD50: acute, oral, mortality
Bibionidae = details: chronic/long-term; duration: 28 days; seedling emergence
Pontoscolex corethrurus = details: chronic/long-term

Cc1cc(C)nc(Nc2ccccc2)n1 [Pyrimethanil]
LD50 (Apis mellifera; dermal): > 100 µg/piece | LD50 (Apis mellifera; duration: 48 hours, oral, unspecified): > 100 µg/piece | LEL (Encarsia formosa; acute, duration: 6 days, mortality): 1000 g/ha | LEL (Encarsia formosa; not reported, reproduction): 1000 g/ha | LC50 (Oncorhynchus mykiss): 10.6 µg/mL (≈ 53 µM) | LD50 (Anas platyrhynchos): > 2000 mg/kg | NOEC (Daphnia magna): 0.94 mg/L | LEL (Trichogramma cacoeciae; mortality): 1000 g/ha | LEL (Trichogramma cacoeciae; reproduction): 1000 g/ha | LC50 (Tagia sp.): 626 mg/kg | LD50 (Colinus virginianus; diet): > 874 mg/kg | LD50 (Colinus virginianus): > 2000 mg/kg | NOAEL (Colinus virginianus; reproduction developmental): 96 mg/kg-day | LD50 (Rattus norvegicus; F): 5970 mg/kg | LD50 (Rattus norvegicus; M): 4150 mg/kg | NOAEL (Rattus norvegicus; chronic, duration: 2 years, clinical chemistry): 17 mg/kg-day | NOAEL (Rattus norvegicus; reproduction developmental, M, body weight): 18.4 mg/kg-day | NOAEL (Rattus norvegicus; subchronic, duration: 90 days, organ weight): 5.4 mg/kg-day | NOEC (Bibionidae): 4 mg/L | NOEC (Pontoscolex corethrurus): 4.12 mg/kg
